Measured values taken from ChEMBL document CHEMBL3351673, “Synthesis and evaluation of new indole-based chalcones as potential antiinflammatory agents” (Eur J Med Chem, 2015).
≈ marks a conversion by molar mass, not a printed value.

What was measured:
Rattus norvegicus [1] = test: Antiinflammatory activity in Sprague-Dawley rat model of LPS-induced sepsis assessed as ALT level at 5 mg/kg/day dosed through gastric intubation for 6 days (reference value: 70.3 +/- 7.9 U/L); assay type: functional
Rattus norvegicus [2] = test: Antiinflammatory activity in Sprague-Dawley rat model of LPS-induced sepsis assessed as hsCRP level at 5 mg/kg/day dosed through gastric intubation for 6 days (reference value: 1.9 +/- 0.3 mg/L); assay type: functional
Rattus norvegicus [3] = test: Antiinflammatory activity in Sprague-Dawley rat model of LPS-induced sepsis assessed as serum MDA level at 5 mg/kg/day dosed through gastric intubation for 6 days (reference value: 4.7 +/- 2.8 mg/L); assay type: functional
Rattus norvegicus [4] = test: Antiinflammatory activity in Sprague-Dawley rat model of LPS-induced sepsis assessed as MPO level at 5 mg/kg/day dosed through gastric intubation for 6 days (reference value: 4.2 +/- 1.8 […]); assay type: functional
[5] = target: T1, Prostaglandin G/H synthase 1 (Ovis aries, UniProt P05979); test: Inhibition of ovine COX1 using arachidonic acid substrate incubated for 5 mins by colorimetry
T1 sequence (P05979 whole entry): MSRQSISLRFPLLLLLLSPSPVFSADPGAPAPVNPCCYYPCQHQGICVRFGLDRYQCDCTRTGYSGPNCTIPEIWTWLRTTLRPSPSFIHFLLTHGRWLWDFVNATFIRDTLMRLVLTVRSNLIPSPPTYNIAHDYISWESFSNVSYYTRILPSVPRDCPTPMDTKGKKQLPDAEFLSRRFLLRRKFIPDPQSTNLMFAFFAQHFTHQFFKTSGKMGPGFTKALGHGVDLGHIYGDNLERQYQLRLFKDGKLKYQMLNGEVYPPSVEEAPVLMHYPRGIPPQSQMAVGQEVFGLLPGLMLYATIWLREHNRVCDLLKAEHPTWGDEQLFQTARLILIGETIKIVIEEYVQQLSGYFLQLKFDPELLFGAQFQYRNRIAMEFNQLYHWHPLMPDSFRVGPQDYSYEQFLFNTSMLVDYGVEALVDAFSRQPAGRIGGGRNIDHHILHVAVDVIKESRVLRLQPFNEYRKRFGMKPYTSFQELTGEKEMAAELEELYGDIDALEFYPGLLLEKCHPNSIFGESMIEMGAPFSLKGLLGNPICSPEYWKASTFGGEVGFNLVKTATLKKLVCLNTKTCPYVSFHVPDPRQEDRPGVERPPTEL

[6] = Cytotoxicity against mouse NIH/3T3 cells incubated for 24 hrs by CCK8 assay; assay type: cell-based; conditions: NIH3T3, 24 h
Rattus norvegicus [7] = test: Antiinflammatory activity in Sprague-Dawley rat model of LPS-induced sepsis assessed as nitric oxide level at 5 mg/kg/day dosed through gastric intubation for 6 days by cadmium reduction method (reference value: 28.6 +/- 2.4 umol/L); assay type: functional
Rattus norvegicus [8] = test: Antiinflammatory activity in Sprague-Dawley rat model of LPS-induced sepsis assessed as AST level at 5 mg/kg/day dosed through gastric intubation for 6 days (reference value: 148.9 +/- 41.3 U/L); assay type: functional

SMILES	Activity (Rattus norvegicus [1]) [U/L]	Activity (Rattus norvegicus [2]) [mg/L]	Activity (Rattus norvegicus [3]) [nmol/mL]	Activity (Rattus norvegicus [4]) [U/L]	IC50 [5] [µM]	IC50 [6] [µg/mL]	Activity (Rattus norvegicus [7]) [µmol/L]	Activity (Rattus norvegicus [8]) [U/L]
COc1ccc2[nH]cc(/C=C/C(=O)c3ccc(S(C)(=O)=O)cc3)c2c1	60.9	1	2.6	0.6	24.2	32.3 (≈ 90.9 µM)	25.6	93.8
COc1ccc2[nH]cc(/C=C/C(=O)c3ccc(C#N)cc3)c2c1					> 33.1	20 (≈ 66.2 µM)		
CS(=O)(=O)c1ccc(C(=O)/C=C/c2c[nH]c3ccc(Cl)cc23)cc1					> 27.8	21 (≈ 58.4 µM)		
N#Cc1ccc(C(=O)/C=C/c2c[nH]c3ccc(Cl)cc23)cc1					> 32.6	33.3 (≈ 109 µM)		
CS(=O)(=O)c1ccc(C(=O)/C=C/c2c[nH]c3ccc(Br)cc23)cc1					> 24.7	17.3 (≈ 42.8 µM)		
N#Cc1ccc(C(=O)/C=C/c2c[nH]c3ccc(Br)cc23)cc1	62.4	0.6	2.5	0.8	23.1	51.6 (≈ 147 µM)	26.2	98.8
Cn1cc(/C=C/C(=O)c2ccc(S(C)(=O)=O)cc2)c2ccccc21					> 29.5	350 (≈ 1030 µM)		
Cn1cc(/C=C/C(=O)c2ccc(C#N)cc2)c2ccccc21					33.9	210 (≈ 733 µM)		
CC(=O)Nc1ccc(C(=O)/C=C/c2cn(C)c3ccccc23)cc1					> 31.4	96.6 (≈ 303 µM)		
COc1ccc2c(c1)c(CC(=O)O)c(C)n2C(=O)c1ccc(Cl)cc1 [INDOMETHACIN]	67.6	1.1	2.7	0.6			26.2	92.5
